This passage reports IC50 results from patent publication US20250122191A1, “COMPOUNDS AS BCL-2 INHIBITORS” (Fochon Biosciences, Ltd, priority 2021, published 2025).

What is called IC50 is the concentration at which inhibition is half-maximal.

Common to all, as to type: cell-based
The test system of one experiment is RS4;11-BCL-2 F104L cells. The experiment in a line: Cell proliferation assay (MTS), RS4;11-BCL-2 F104L engineered cells. The settings on record: Homo sapiens, 120 h, read-out: RS4, 11 BCL2-F104L IC50. The source says:
MTS testing kit was purchased from Promega (Madison, WI, USA). The RPMI-1640, Fetal bovine serum and Penicillin-Streptomycin were purchased from BI (Biological Industries, Beit Haemek, Israel). Puromycin was purchased from Beyotime (shanghai, China). Dimethyl sulfoxide (DMSO) was purchased from Sigma (St. Louis., MO, USA). RS4;11-BCL-2 G101V (Cobioer Lot. #: CBD2021063013P4), RS4;11-BCL-2 D103E (Cobioer Lot. #: CBD2021063013P4), RS4;11-BCL-2 D103Y (Cobioer Lot. #: CBD2022012101P4) and RS4;11-BCL-2 F104L (Cobioer Lot. #: CBD2021063014P4) cells were cultured in RPMI1640 supplemented with 1 ug/mL puromycin, 100 U/mL Penicillin-Streptomycin and 10% FBS.
To investigate whether a compound is able to inhibit the activity of BCL-2 mutation in cells, a mechanism-based assay using engineered cell lines stably overexpressing BCL-2 mutation (RS4;11-BCL-2 G101V, RS4;11-BCL-2 D103E, RS4;11-BCL-2 D103Y, and RS4;11-BCL-2 F104L) was developed. In this assay, the inhibition of BCL-2 mutation was reflected by the inhibition of cell proliferation of engineered RS4;11 cells. Cells were plated into 96-well plates at optimized cell density (RS4;11-BCL-2 G101V: 5000 cells/well; RS4;11-BCL-2 D103E: 7500 cells/well; RS4;11-BCL-2 D103Y: 7500 cells/well; RS4;11-BCL-2 F104L: 5000 cells/well). Plates were incubated at 37° C., with 5% CO2 for 4 h (RS4;11-BCL-2 G101V, RS4;11-BCL-2 F104L) and 24 h (RS4;11-BCL-2 D103E, RS4;11-BCL-2 D103Y), respectively. Compounds were serially diluted and added to the plates with the final concentrations of 10000, 3333.3, 1111.1, 370.4, 123.5, 41.2, 13.7, 4.6 and 1.5 nM. Plates were incubated at 37° C., with 5% CO2 for 120 h (RS4; 11-BCL-2 G101V, RS4; 11-BCL-2 F104L) and 72 h (RS4;11-BCL-2 D103E, RS4;11-BCL-2 D103Y), respectively. 20 μl MTS was added into each well and the plates were incubated at 37° C., with 5% CO2 exactly for 2 h. The absorbance was measured by a microplate reader at 490 nm. IC50 values were calculated using GraphPad Prism 8.0 software.

A further experiment deals with RS4;11-BCL-2 D103E cells. In words: Cell proliferation assay (MTS), RS4;11-BCL-2 D103E engineered cells. Conditions: Homo sapiens, 72 h, read-out: RS4, 11 BCL2-D103E IC50. In short, it runs like this:
(§1)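 Proliferation IC50 in RS4;11 lines engineered with BCL-2 mutations, measured by MTS at 490 nm after 72 h (D103E, D103Y) or 120 h (G101V, F104L) compound treatment at 37 °C.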

For a further experiment, the system named is RS4;11-BCL-2 G101V cells. In words: Cell proliferation assay (MTS), RS4;11-BCL-2 G101V engineered cells. Conditions: Homo sapiens, 120 h, read-out: RS4, 11 BCL2-G101V IC50. In short, it runs like this:
as §1

Another experiment deals with Toledo cells. The experiment in a line: Cell proliferation assay (MTS), Toledo cells. Conditions: Homo sapiens, 72 h. In short, it runs like this: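 Toledo cells (RPMI-1640, 10% FBS) seeded at 30000 cells/well, rested 4 h, then exposed 72 h at 37 °C, 5% CO2 to compound at nine final concentrations, 1.5–10000 nM. Viability by MTS (2 h), absorbance at 490 nm. IC50 from the concentration-response.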

As for `COc1ccc(CN2CCN(C3CC4(CCN(c5ccc(C(=O)NS(=O)(=O)c6cnc(NC[C@H]7CC[C@](C)(O)CC7)c([N+](=O)[O-])c6)c(Oc6cnc7[nH]ccc7c6)c5)CC4)C3)[C@H](c3ccccc3C(C)C)C2)cc1` [Example 61, 2-((1H-pyrrolo[2,3-b]pyridin-5-yl)oxy)-N-((6-((((1r,4r)-4-hydroxy-4-methylcyclohexyl)methyl)amino)-5-nitropyridin-3-yl)sulfonyl)-4-(2-((R)-2-(2-isopropylphenyl)-4-(4-methoxybenzyl)piperazin-1-yl)-7-azaspiro[3.5]nonan-7-yl)benzamide], the IC50 in the experiment on RS4;11-BCL-2 F104L cells was 1 nM.
As for `COc1cc(CN2CCN(C3CC4(CCN(c5ccc(C(=O)NS(=O)(=O)c6cnc(NC[C@H]7CC[C@](C)(O)CC7)c([N+](=O)[O-])c6)c(Oc6cnc7[nH]cc(F)c7c6)c5)CC4)C3)[C@H](c3ccccc3C(C)C)C2)ccn1` [Example 243, 2-((3-fluoro-1H-pyrrolo[2,3-b]pyridin-5-yl)oxy)-N-((6-((((1r,4r)-4-hydroxy-4-methylcyclohexyl)methyl)amino)-5-nitropyridin-3-yl)sulfonyl)-4-(2-((R)-2-(2-isopropylphenyl)-4-((2-methoxypyridin-4-yl)methyl)piperazin-1-yl)-7-azaspiro[3.5]nonan-7-yl)benzamide], the IC50 with RS4;11-BCL-2 D103E cells, in the experiment with RS4;11-BCL-2 G101V cells and with Toledo cells was 1 nM throughout.
`COCCN1CCN(C2CC3(CCN(c4ccc(C(=O)NS(=O)(=O)c5cnc(NC[C@H]6CC[C@](C)(O)CC6)c([N+](=O)[O-])c5)c(Oc5cnc6[nH]cc(F)c6c5)c4)CC3)C2)[C@H](c2ccccc2C(C)C)C1` [Example 203, 2-((3-fluoro-1H-pyrrolo[2,3-b]pyridin-5-yl)oxy)-N-((6-((((1r,4r)-4-hydroxy-4-methylcyclohexyl)methyl)amino)-5-nitropyridin-3-yl)sulfonyl)-4-(2-((R)-2-(2-isopropylphenyl)-4-(2-methoxyethyl)piperazin-1-yl)-7-azaspiro[3.5]nonan-7-yl)benzamide]: the IC50 in the experiment with RS4;11-BCL-2 D103E cells, in the experiment on RS4;11-BCL-2 G101V cells and with Toledo cells was 1 nM in each case.
For the compound `COc1nc2[nH]cc(F)c2cc1Oc1cc(N2CCC3(CC2)CC(N2CCN(Cc4cnn(C5CC5)c4)C[C@H]2c2ccccc2C(C)C)C3)ccc1C(=O)NS(=O)(=O)c1cnc(NC[C@H]2CC[C@](C)(O)CC2)c([N+](=O)[O-])c1` [Example 133, 4-(2-((R)-4-((1-cyclopropyl-1H-pyrazol-4-yl)methyl)-2-(2-isopropylphenyl)piperazin-1-yl)-7-azaspiro[3.5]nonan-7-yl)-2-((3-fluoro-6-methoxy-1H-pyrrolo[2,3-b]pyridin-5-yl)oxy)-N-((6-((((1r,4r)-4-hydroxy-4-methylcyclohexyl)methyl)amino)-5-nitropyridin-3-yl)sulfonyl)benzamide], the half-maximal inhibitory concentration (IC50) with RS4;11-BCL-2 D103E cells was 2 nM; in the experiment on RS4;11-BCL-2 G101V cells, 1 nM; in the experiment on Toledo cells it was 1 nM.
Consider `COc1ccc(CN2CCN(C3CC4(CCN(c5ccc(C(=O)NS(=O)(=O)c6cnc(NC[C@H]7CC[C@](C)(O)CC7)c([N+](=O)[O-])c6)c(Oc6cnc7[nH]cc(F)c7c6)c5)CC4)C3)[C@H](c3ccccc3C(C)C)C2)cn1` [Example 252, 2-((3-fluoro-1H-pyrrolo[2,3-b]pyridin-5-yl)oxy)-N-((6-((((1r,4r)-4-hydroxy-4-methylcyclohexyl)methyl)amino)-5-nitropyridin-3-yl)sulfonyl)-4-(2-((R)-2-(2-isopropylphenyl)-4-((6-methoxypyridin-3-yl)methyl)piperazin-1-yl)-7-azaspiro[3.5]nonan-7-yl)benzamide], for which the IC50 with RS4;11-BCL-2 D103E cells, in the experiment with RS4;11-BCL-2 G101V cells and in the experiment on Toledo cells was 1 nM in each case.
As for `CCOc1nc2[nH]cc(F)c2cc1Oc1cc(N2CCC3(CC2)CC(N2CCN(Cc4ccc(OC)c(OC)c4)C[C@H]2c2ccccc2C(C)C)C3)ccc1C(=O)NS(=O)(=O)c1cnc(NC[C@H]2CC[C@](C)(O)CC2)c([N+](=O)[O-])c1` [Example 8, 4-(2-((R)-4-(3,4-dimethoxybenzyl)-2-(2-isopropylphenyl)piperazin-1-yl)-7-azaspiro[3.5]nonan-7-yl)-2-((6-ethoxy-3-fluoro-1H-pyrrolo[2,3-b]pyridin-5-yl)oxy)-N-((6-((((1r,4r)-4-hydroxy-4-methylcyclohexyl)methyl)amino)-5-nitropyridin-3-yl)sulfonyl)benzamide], the IC50 came out at 3 nM in the experiment on RS4;11-BCL-2 D103E cells, 1 nM in the experiment on RS4;11-BCL-2 G101V cells and 1 nM with Toledo cells.
Regarding `CCOc1nc2[nH]cc(F)c2cc1Oc1cc(N2CCC3(CC2)CC(N2CCN(Cc4ccc(OC)nc4)C[C@H]2c2ccccc2C(C)C)C3)ccc1C(=O)NS(=O)(=O)c1cnc(NC[C@H]2CC[C@](C)(O)CC2)c([N+](=O)[O-])c1` [Example 120, 2-((6-ethoxy-3-fluoro-1H-pyrrolo[2,3-b]pyridin-5-yl)oxy)-N-((6-((((1r,4r)-4-hydroxy-4-methylcyclohexyl)methyl)amino)-5-nitropyridin-3-yl)sulfonyl)-4-(2-((R)-2-(2-isopropylphenyl)-4-((6-methoxypyridin-3-yl)methyl)piperazin-1-yl)-7-azaspiro[3.5]nonan-7-yl)benzamide], the IC50 in the experiment on RS4;11-BCL-2 D103E cells, in the experiment with RS4;11-BCL-2 G101V cells and in the experiment with Toledo cells was 1 nM each time.
Regarding `CC(C)c1ccccc1[C@@H]1CN(Cc2cnn(C3CC3)c2)CCN1C1CC2(CCN(c3ccc(C(=O)NS(=O)(=O)c4cnc(NC[C@H]5CC[C@](C)(O)CC5)c([N+](=O)[O-])c4)c(Oc4cnc5[nH]cc(F)c5c4)c3)CC2)C1` [Example 247, 4-(2-((R)-4-((1-cyclopropyl-1H-pyrazol-4-yl)methyl)-2-(2-isopropylphenyl)piperazin-1-yl)-7-azaspiro[3.5]nonan-7-yl)-2-((3-fluoro-1H-pyrrolo[2,3-b]pyridin-5-yl)oxy)-N-((6-((((1r,4r)-4-hydroxy-4-methylcyclohexyl)methyl)amino)-5-nitropyridin-3-yl)sulfonyl)benzamide], the IC50 with RS4;11-BCL-2 D103E cells, with RS4;11-BCL-2 G101V cells and with Toledo cells was 1 nM in each case.
With `COc1ccc(CN2CCN(C3CC4(CCN(c5ccc(C(=O)NS(=O)(=O)c6cnc(NC[C@H]7CC[C@](C)(O)CC7)c([N+](=O)[O-])c6)c(Oc6cc7c(F)c[nH]c7nc6OC)c5)CC4)C3)[C@H](c3ccccc3C(C)C)C2)nc1` [Example 122, 2-((3-fluoro-6-methoxy-1H-pyrrolo[2,3-b]pyridin-5-yl)oxy)-N-((6-((((1r,4r)-4-hydroxy-4-methylcyclohexyl)methyl)amino)-5-nitropyridin-3-yl)sulfonyl)-4-(2-((R)-2-(2-isopropylphenyl)-4-((5-methoxypyridin-2-yl)methyl)piperazin-1-yl)-7-azaspiro[3.5]nonan-7-yl)benzamide], the IC50 was found to be 3 nM in the experiment on RS4;11-BCL-2 D103E cells, 1 nM with RS4;11-BCL-2 G101V cells and 1 nM in the experiment with Toledo cells.
Take `COc1cc(CN2CCN(C3CC4(CCN(c5ccc(C(=O)NS(=O)(=O)c6cnc(NC[C@H]7CC[C@](C)(O)CC7)c([N+](=O)[O-])c6)c(Oc6cnc7[nH]cc(F)c7c6)c5)CC4)C3)[C@H](c3ccccc3C(C)C)C2)ccc1C1CC1` [Example 73, 4-(2-((R)-4-(4-cyclopropyl-3-methoxybenzyl)-2-(2-isopropylphenyl)piperazin-1-yl)-7-azaspiro[3.5]nonan-7-yl)-2-((3-fluoro-1H-pyrrolo[2,3-b]pyridin-5-yl)oxy)-N-((6-((((1r,4r)-4-hydroxy-4-methylcyclohexyl)methyl)amino)-5-nitropyridin-3-yl)sulfonyl)benzamide]: the values for the half-inhibitory concentration (IC50) in the experiment with RS4;11-BCL-2 D103E cells, in the experiment on RS4;11-BCL-2 G101V cells and with Toledo cells were 3 nM, 1 nM and 1 nM, respectively.
